Patent US20250188411A1, “METHOD FOR SELECTIVE REMOVAL OF […] PLURIPOTENT STEM CELLS” (Buddhist Tzu Chi Medical Foundation, priority 2023, published 2025)

How the values were obtained:
[1] = system: human induced pluripotent stem cells (iPSCs); assay: Treatment of cultured human iPSCs with n-butylidenephthalide, cell morphology and survival; type: cell-based; details: for number of human iPSCs versus control (Ctrl) and DMSO control: 100 μM
Method: 1. Culture of iPSCs in Essential 8 Feeder-Free Culture Medium: Human iPSCs were cultured in Essential 8 medium (Gibco) in culture dishes treated with basement membrane matrix (Matrigel). Subculture was performed when the cells reached 70% to 80% confluence, approximately 3 to 5 days. During subculture, the cells were rinsed twice with PBS until the edges began to lift, followed by treatment with a cell dissociation regent (Accutase) for 1 to 5 minutes to round up most of the cells. The cell dissociation regent was then diluted with DMEM/F12, and DMEM medium was added. The cells were scraped with even force by a cell scraper, dispersed into cell mass with appropriate size by mechanical force, and plated at an appropriate ratio (about 1:5 to 1:10) with 10 μM of Y27632 added.
(§1) a. Drug Efficacy and Concentration Testing: n-Butylidenephthalide was diluted to different concentrations and administered to cells at final concentrations ranging from 50 to 750 μM. The types of administered cells include cultured human iPSCs, human iPSCs aggregated into SFEBs for one day, neural stem cells on day 10 of SFEB differentiation, neurons on day 25 of SFEB differentiation, and cells on day 5 of neural differentiation by the adhesion. The concentrations and treatment durations were as described in the Examples.
Human induced pluripotent stem cells (iPSCs) were collected and cultured in Essential 8 medium without a feeder layer. After 24 hours of treatment with different concentrations of n-butylidenephthalide (100 μM, 200 μM, 500 μM, and 750 μM), the cell morphology was shown in FIG. 1A.

[2] = system: embryoid bodies derived from human iPSCs; assay: Treatment of embryoid bodies from human iPSCs (SFEB suspension, one day), morphology and trypan blue staining; type: cell-based; details: 24 hours
Method: (§2) Step 1: iPSCs were aggregated into suspended embryoid bodies (EBs), which is an initial step of differentiation. iPSCs were treated with 1 mg/mL Dispase II until the edges rolled up, then rinsed three times with PBS. The iPSCs were collected by a cell scraper and dispersed into cell mass with appropriate size by visual inspection of pipet. After suspended in Essential 6 medium containing RevitaCell, and the iPSCs were transferred to a sterile, non-adherent 6 cm2 culture plate for a 2-day suspension culture, with daily medium changing.
as §1
Cultured and collected iPSCs were aggregated into spheres using the SFEB suspension method and suspended in culture medium to simulate the three-dimensional structure of general pluripotent cell differentiation and transplantation. After only one day of suspension differentiation, the cells aggregated into structurally complete spheres (embryoid bodies).

[3] = system: neural stem cells differentiated from human iPSCs; assay: Treatment of neural stem cells on day 10 of SFEB differentiation, morphology and NeuN/NF immunofluorescence; type: cell-based
Method: (§3) 3. Neural Differentiation of Human iPSCs Using the Serum-Free Embryoid Body (SFEB) Method: The differentiation of iPSCs into neural cells was performed in four steps. The first three steps involved SFEB suspension, in which suspended spheroid cells were cultured for 35 days, and the fourth step is a 3-day cell adhesion growth:
as §2
(§4) Step 2: The EBs were transferred to a 15 mL centrifuge tube for settlement at room temperature, and the EBs were cultured in suspension for 2 days by adding neural induction medium (NI medium, Gibco) after removal of the supernatant. […]
(§5) Step 4: The cells were attached to a culture plate coated with 1% basement membrane matrix or laminin/ornithine. […] The cells grow outward from the center of the colony, and after 3 days of continued culture, the cells were ready for experimentation. […]

[4] = system: neuronal cells differentiated from human iPSCs; assay: Treatment of neuronal cell spheroids on day 25 of SFEB differentiation, morphology and NeuN/NF immunofluorescence; type: cell-based
Method: as §3, §2, §4, §5

[5] = system: differentiated neurons derived from human iPSCs; assay: Calcium ion imaging of differentiated neurons after KCl and glutamic acid stimulation; type: cell-based; details: tested day 38
Method: d. Calcium Ion Imaging Analysis: Cells were seeded onto 10 mm diameter coverslips coated with Geltrex and cultured in NB medium supplemented with RevitaCell and Compound E for 3 days. A 1 μM solution of Fluo-4 was prepared in physiological buffer. The coverslips were incubated in the Fluo-4 solution at 37° C. for 40 minutes, followed by incubation in physiological buffer at 37° C. for 20 minutes. The coverslips were then transferred to a calcium imaging chamber for perfusion imaging. The cells were perfused with physiological buffer for 30 seconds, then switched to 60 mM KCl perfusion for one minute, followed by physiological buffer perfusion for five minutes. Subsequently, the cells were perfused with 1 mM L-glutamic acid for one minute, followed by physiological buffer perfusion for five minutes. Images were captured using a Nikon ECLIPSE Ti2-E microscope and analyzed with NIS-Elements AR software.
Three sets of cells were prepared: one set of cells cultured without n-butylidenephthalide treatment (Ctrl), another set cultured with 500 μM n-butylidenephthalide for 120 hours on day 10 of differentiation (NPC-BP500), and a third set cultured with 500 μM n-butylidenephthalide for 120 hours on day 25 of differentiation (Neuron-BP500). […]

[6] = system: undifferentiated pluripotent stem cells expressing Oct-4; assay: Oct-4 / N-cadherin immunofluorescence on day 5 of neural stem cell adhesion differentiation; type: cell-based, human; details: 50, 100 and 200 μM for 24 hours on day 5 of differentiation, FIG. 6
Method: 4. Neural Stem Cell Adhesion Differentiation of Human iPSCs (Neural Stem Cell Adhesion Differentiation Method): Human iPSCs, cultured in a feeder-free environment, were subcultured at a 1:10 ratio for neural stem cell differentiation. The differentiation was induced by using a neural induction medium composed of DMEM/F12 (2:1) and N2 supplement, with the addition of basic FGF (10 mg/mL), SB431542 (2 μM), and CHIR99021 (3 μM). The medium was changed every two days with proteins and small molecules re-added. Culture time for this neural stem cell adhesion differentiation is up to 7 days.
as §1
a. Immunofluorescence Staining Method: Chamber slides were surface-treated with 1% basement membrane matrix for 3 to 4 hours, and the slides were set aside after the matrix was removed. […] The slides were stored in the dark at 4° C. for subsequent analysis under a fluorescence microscope. […]

[7] = system: dopamine neurons differentiated from human iPSCs; assay: Identification of differentiating dopamine neurons (CHSF-DA method): markers, dopamine ELISA, patch-clamp; type: cell-based; details: 100 μM on days 23 to 28 of CHSF-DA differentiation, FIGS. 8A to 8M
Method: 2. Dopaminergic Neuron Adherent Differentiation of Human iPSCs (CHSF-DA Differentiation Method): Human iPSCs, cultured in feeder-free environment, were subcultured at a 1:10 ratio for dopaminergic neurons differentiation. For induction, a neural induction medium composed of DMEM/F12 (2:1) and N2 supplement were used and dopaminergic precursor cell-inducing factors basic FGF (FGF-basic, as known as FGF-2 or bFGF) (10 mg/mL), SB431542 (2 μM), CHIR99021 (7.5 μM), SAG (1 μM), and LDN193189 (0.2 μM) were added in days 1 to 12 of the differentiation process. On day 13 of the differentiation process, the medium was switched to a neuron culture medium (Neurobasal medium and N2/B27 supplements), with SAG (0.5 μM) added from days 13 to 18. SAG was removed on day 18, and 100 μM of n-butylidenephthalide was added on days 23 to 28 for a total of 6 days. The cells were subsequently cultured in Neurobasal medium with N2/B27 supplements, the medium was changed every 2 days during the differentiation process with proteins and small molecules re-added.
b. Application of n-Butylidenephthalide in Dopaminergic Neuron Preparation: 100 μM of n-Butylidenephthalide was added from days 23 to 28 during the CHSF-DA differentiation process for a total of 6 days.
a. […] The slides were stored in the dark at 4° C. for subsequent analysis under a fluorescence microscope. […]

[8] = system: residual undifferentiated pluripotent stem cells; details: early treatment; cited from earlier work

Row | SMILES | number of human iPSCs versus control (Ctrl) and DMSO control ([1]; 24 hours, FIG. 1A) | number of human iPSCs versus control (Ctrl) and DMSO control ([1]; 48 hours, FIG. 1B) | cell morphology of human iPSCs ([1]; 200 μM, 48 hours, FIG. 1B) | adherence and survival of human iPSCs ([1]; concentrations above 500 μM, 24 hours, FIG. 1A) | survival of human iPSCs ([1]; concentrations above 500 μM, 48 hours, FIG. 1B) | viable cells by trypan blue staining ([2]; 200 μM) | viable cells by trypan blue staining ([2]; 500 μM) | morphology of suspended spheres (embryoid bodies) ([2]; 500 μM, FIG. 2) | cell death or morphological changes of suspended neural stem cell spheres ([3]; 50, 100, 200 and 500 μM for 120 hours from day 10 of differentiation, FIG. 3A) | ability of treated neural stem cells to differentiate into mature neurons (NeuN, NF) ([3]; treated from day 10, cultured until day 38, FIG. 3B) | damage to neuronal cell spheroids or cell death ([4]; 50, 100, 200 and 500 μM for 120 hours from day 25 of differentiation, FIG. 4B) | NeuN and NF expression and morphology of treated mature neurons ([4]; treated from day 25, cultured until day 38, FIG. 4C) | calcium ion changes after KCl and glutamic acid stimulation versus Ctrl ([5]; NPC-BP500: 500 μM for 120 hours on day 10 of differentiation) | calcium ion changes after KCl and glutamic acid stimulation versus Ctrl ([5]; Neuron-BP500: 500 μM for 120 hours on day 25 of differentiation) | proportion of undifferentiated pluripotent stem cells expressing Oct-4 [6] | effect on specific protein expression and neurological function of dopamine neurons [7] | presence of residual undifferentiated pluripotent stem cells [8]
1 | CCCC=C1OC(=O)c2ccccc21 [n-butylidenephthalide] | significantly lower | significantly lower | obvious floating and cell death | did not adhere or survive | No cells survived | decrease in viable cells | no viable cells were observed | all dispersed and died | no cell death or morphological changes were observed | able to differentiate normally into mature neurons | no damage to the spheroids or cell death was observed | exhibiting typical nerve fiber morphology | no statistically significant differences | no statistically significant differences | decreased significantly | did not affect the expression of specific proteins or the neurological function of dopamine neurons | –
2 | O=c1c(O)c(-c2ccc(O)c(O)c2)oc2cc(O)cc(O)c12 [quercetin] | – | – | – | – | – | – | – | – | – | – | – | – | – | – | – | – | can reduce
